Reference: ChEMBL document CHEMBL3259786, “Quinazolines: new horizons in anticonvulsant therapy” (Eur J Med Chem, 2014)

Columns and labels:
[1] = species on record: Mus musculus; test: Anticonvulsant activity in mouse by MES test; format: functional
[2] = tested on: Mus musculus; test: Anticonvulsant activity in ip dosed mouse by MES test; format: functional
[3] = Toxicity in ip dosed mouse; format: organism-based; details: in vivo
[4] = Acute toxicity in po dosed mouse; format: organism-based; details: in vivo
[5] = tested on: Mus musculus; test: Anticonvulsant activity in po dosed albino mouse measured after 60 mins by MES test; format: functional

SMILES | ED50 [1] [mg/kg] | Activity [2] [%] | LD50 [3] [mg/kg] | LD50 [4] [mg/kg] | PD50 [5] [µmol/kg]
Nc1nnc2c3ccccc3nc(-c3ccccc3Br)n12 | 27.4 | – | – | – | –
c1ccc(CN(Cc2ccccc2)c2nc(N(Cc3ccccc3)Cc3ccccc3)c3ccccc3n2)cc1 | – | 50 | 400 | – | –
CCSc1nc(=O)c2ccccc2[nH]1 | – | 60 | 1000 | – | –
O=C(CNc1ccc(Cl)cc1)Nn1c(COc2ccc(Cl)cc2Cl)nc2ccccc2c1=O | – | – | – | > 3000 | 200.53
